Measured values taken from patent publication US20040110247A1, “New molecular tools for the rapid assessment of the presence and viability of microorganisms and methods of use” (priority 2002, published 2004).

Tests used:
Type in all cases: cell-based
[1] = test system: Wild-type (wt) Streptococcus gordonii; assay: RT-qPCR of 16S rRNA after drug exposure; conditions: reverse transcription of 16S rRNA from total RNA, then qPCR
Description: (§1) 1) Strains and growth conditions: Wild-type (wt) and penicillin tolerant (Tol) Streptococcus gordonii (I. Caldelari et al., Antimicrobial Agents and Chemotherapy, 2000, 44(10):2802-2810) were grown at 37 degrees Celsius, either in brain heart infusion broth (BHI) without aeration, or on Columbia agar supplemented with 3% blood. Quantitative culture was performed by plating serial dilutions of bacterial cultures taken at various time points on penicillinase-containing blood-agar plates. Colonies counts were determined after incubation for […] at 37° C.
(§2) 3) Extraction and purification of bacterial DNA and RNA: (i) Total DNA from 3 ml of culture samples was extracted and purified using the DNeasy Tissue Kit according to the instructions of the manufacturer (Qiagen). […] Total RNA concentrations were determined by spectrophotometry and quality checked on 1% MOPS-agarose gels. […]
(§3) 4) Quantitative Real-Time PCR was performed using the following probe FAM-5′-TTGCACCACTACCAGATGGAC CTGC-3′-TAMRA (SEQ ID NO:3) according to the instruction of the manufacturer (Perkin-Elmer) on Sequence Detection System 5700 (Perkin-Elmer) in a total volume of 50 μl 1×PCR buffer (Gibco) containing 25 pmoles of each primer, […] of fluorescent probe, […] each dNTP and 1.5 UI of Taq DNA polymerase (Gibco). […]

[2] = test system: penicillin tolerant (Tol) Streptococcus gordonii; assay: RT-qPCR of 16S rRNA after drug exposure, tolerant mutant control; conditions: same system, Tol as control
Description: as §1, §2, §3

[3] = test system: Wild-type (wt) Streptococcus gordonii; assay: Quantitative culture (colony counts) of drug-exposed S. gordonii cultures
Description: as §1

Substance: penicillin
- 16S rRNA amplicons (viability marker) during drug-induced killing [1]: decreased proportionally to cell death
- ribosomal RNA amplicons in penicillin-tolerant mutant Tol [2]: remained stable and proportional to viable bacteria
- loss of viability ([3]; after addition of penicillin, up to 50 hours): 5 log CFU/ml
- loss of viability ([3]; cultures dramatically killed with penicillin (qualitative PCR experiment)): > 3 log CFU/ml
